Experimental data: patent US8252283B2, “Method for treating vascular disorders” (Cytotools GmbH, priority 1999, dated 2012)
“Also recorded” adds a separate entry of the source.

What was measured:
[1] = tested on: HUVEC; assay: Apoptosis rate after cone and plate shear pre-cultivation and transfer to static wells, DAPI staining (Examples 11, 12); assay type: cell-based, human; conditions: for Apoptosis rate (%) with EGTA and with peptides: 0.5 mM EGTA, RGD peptide 250 μg/ml + IAP peptide 400 μg/ml
Experimental: The cone and plate shear apparatus is first cleaned with a soft cloth and 70% ethanol, the cone is sterilized, and the apparatus is then stabilized at 37° C. in a heating cabinet for at least 30 min. The precultivated cells are washed with culture medium and provided with 0.06 ml/cm^2 fresh culture medium, and the culture dish is rapidly fitted into the cone and plate shear apparatus.
The cone is raised using the coarse adjustment, and the culture dish together with lid is carefully inserted into the holder provided therefor. The lid is taken off and the cone is lowered onto the culture dish and adjusted: the tip of a cone is then a minimal distance from the cell lawn and the cone moves round without abrading. The assembled cone and plate shear apparatus is placed in an incubator at 37° C., 5% (v/v) CO2 with a water vapor-saturated atmosphere for dynamic cultivation of the cells.
(§1) The culture supernatant is aspirated off of a Petri dish, and the cell lawn is fixed with 1 ml of formaldehyde solution on ice for 15 minutes, washed twice with 2 ml of PBS, treated with 0.5 ml of DAPI solution for 15 minutes, washed with PBS and evaluated under a fluorescence microscope. The UV filter set and a 20× or 40× objective are used. 500-1 000 cells are selected at random, and the cells with apoptotic nuclei are counted.
The culture dish is removed and divided into 12 independent culture wells (culture area of each well 0.8 cm^2) by putting in a suitable insert. Half of the culture is cultivated in culture medium with EGTA and the second half is cultivated in culture medium without EGTA. […] The apoptosis rate is determined by staining the apoptotic cells with DAPI.

[2] = tested on: HUVEC; assay: Induced calcium influx into the cells, intracellular calcium indicator Fluo-3 AM; assay type: cell-based, human; conditions: static culture, measured at addition of substance
Experimental: Fluo-3 is a calcium indicator which forms a fluorescent complex after binding of Ca^2+. The ester Fluo-3 AM is taken up by the cells through diffusion. The calcium indicator Fluo 3 is produced only after hydrolysis of the ester in the cell. […] The measurement is carried out with normal fluorescein filters. At an excitation wavelength of 488 nm (500 nm), the emission maximum is at 525 nm and increases by a factor of 100 (200) through calcium binding.
Confluent HUVEC cell lawns in 24-well plates are washed three times with serum-free medium, incubated with preheated serum-free medium with Fluo-3 AM under culture conditions for 30 minutes and washed three times, and the plate is measured with a fluorimeter. First the sensitivity of the instrument is adjusted, and then fluorescence values corresponding to the instantaneous calcium level in the cell are recorded every 1-10 seconds. Substances can be added to the cells while the measurement is taking place. […] Assessment of the calcium level is possible with this method.
The influx of calcium into the cells can be employed as early indicator.
The test system can also be carried out with the calcium indicator Fluo-3 AM. […] The cells are employed for the test after complete confluence is reached. […] During the measurement, the substances b, c, e, f, g are added to the cells. […]

[3] = tested on: perfused HUVEC; assay: Apoptosis rate of endothelial cells in dynamic (perfusion) culture, DAPI staining; assay type: cell-based, human; conditions: for Effect on apoptosis (in words): perfusion culture
Experimental: as §1
(§2) After complete confluence is reached, the cells are employed for the test. Firstly, thrombospondin 1 is added in various concentrations (1-600 μg/ml) to fresh medium and compared with the effect of conditioned medium on the spontaneous apoptosis rate of HUVEC. […] The apoptosis rate is determined by staining apoptotic cells with DAPI.

[4] = tested on: human umbilical vein endothelial cells (HUVEC); assay: Apoptosis rate of confluent endothelial cells in static culture, DAPI staining; assay type: cell-based; conditions: for Effect on the apoptosis rate (in words): substance(s) added to fresh medium
Experimental: HUVEC are cultivated in gelatin-coated culture vessels at 37° C., 5% CO2 with a water vapor-saturated air atmosphere. The culture medium is changed every 2-3 days; at confluence, the cells are passaged with a division rate of from 1:3 to 1:5. HUVEC grow with strict contact inhibition and form monolayer cell lawns with a typical cobblestone morphology. At confluence, the cultures reach cell densities of 4-9×10^4 cells/cm^2. Only HUVEC cultures of passages 1-4 are used for apoptosis investigations.
as §1
The apoptosis index is calculated by the following formula: […]
as §2
The cells are seeded into the appropriate culture vessels (e.g. 24-well plate/0.5 ml per well) and employed for the test after complete confluence is reached. Investigations into the effect of various peptides and proteins (table 2) on the apoptosis rate of endothelial cells are carried out.
The cells are seeded in the appropriate culture vessels (e.g. 24-well plate/0.5 ml per well) and employed for the test after complete confluence is reached. […] The apoptotic cells and the total cell count are determined and the apoptosis index is calculated (percent of apoptotic cells). The data of 3 independent experiments are indicated in table 1, stating the mean and standard deviation.

[5] = static, 48 h, substance(s) in fresh medium, TSP 1 μg/ml, RGD 250 μg/ml, CBD 400 μg/ml

O=C(O)CN(CCOCCOCCN(CC(=O)O)CC(=O)O)CC(=O)O [EGTA]
Apoptosis rate (%) with EGTA [2.5 mM] ([1]; 0 hours): 0.40 ± 0.22%
Apoptosis rate (%) with EGTA and with peptides ([1]; 0 hours): 0.45 ± 0.24%
Apoptosis rate (%) with EGTA [2.5 mM] ([1]; 2 hours): 0.42 ± 0.22%
Apoptosis rate (%) with EGTA and with peptides ([1]; 2 hours): 1.00 ± 0.29%
Apoptosis rate (%) with EGTA [2.5 mM] ([1]; 3 hours): 0.96 ± 0.27%
Apoptosis rate (%) with EGTA and with peptides ([1]; 3 hours): 0.65 ± 0.24%
Apoptosis rate (%) with EGTA [2.5 mM] ([1]; 4 hours): 1.56 ± 0.23%
Apoptosis rate (%) with EGTA and with peptides ([1]; 4 hours): 1.25 ± 0.33%
Apoptosis rate (%) with EGTA [2.5 mM] ([1]; 5 hours): 2.26 ± 0.35%
Effect on the apoptosis rate (in words) ([1]; EGTA in culture medium with the active peptides): significant reduction in the apoptosis rate
Effect on the apoptosis rate (in words) ([1]; culture medium with 2.5 mmol/l EGTA, static after shear apparatus): significant reduction in the apoptosis rate

Thrombospondin 1 [TSP-1]
Effect on intracellular calcium level (in words) [2]: increase in the intracellular calcium level; also recorded: calcium influx into the cell
Apoptosis rate (%) after 24 h ([3]; dynamic culturing conditions, TSP-1 1 μg/ml): <0.1%
Effect on apoptosis (in words) [3]: no effect on apoptosis
Effect on apoptosis (in words) ([3]; listed as Thrombospondin): no effect on perfused HUVEC
Apoptosis rate (%) ([4]; static culture, 24 h, substance alone (in fresh medium; TSP-1 1 μg/ml, antiserum 1:20, mAb 1:30)): 3.0 ± 0.4%
Effect on the apoptosis rate (in words) ([4]; static culture): increase in spontaneous apoptosis
Effect on the apoptosis rate (in words) ([4]; static culture, listed as thrombospondin): significant increase in the apoptosis rate
Apoptosis rate (%) after 24 h ([4]; static culturing conditions, TSP-1 1 μg/ml): 3.0 ± 0.4%
Apoptosis rate (%) [4, 5]: 6.9 ± 1.2%
Apoptosis rate [%] (with SEM) ([4]; static, 48 hours, fresh medium + TSP-1 1 μg/ml alone): 7.3 ± 0.6%

cyclic Arg-Gly-Asp-(D-Phe)-Val peptide [active RGD]
Effect on the apoptosis rate (in words) ([4]; static culture): no effect on the apoptosis rate
Apoptosis rate (%) [4, 5]: 1.2 ± 0.5%
